# Measurements from patent US10039283B2, “Substituted pyrazolyl-nicotin(thio)amide derivatives and their use as fungicides” (BAYER CROPSCIENCE AKTIENGESELLSCHAFT, priority 2014, dated 2018).
# Assay: Log P by HPLC on reversed phase, method [a], acidic range (0.1% formic acid)
# Format: physicochemical
# Settings: LC-UV, 0.1% formic acid in water and acetonitrile
row,Structure (SMILES),LogP
1,O=C(Nc1cnn(-c2cc(Cl)ccc2Cl)c1C(F)(F)F)c1ccc(Br)nc1C(F)F [Example 178],3.85^[a]
2,Cc1cnc(C(F)F)c(C(=O)Nc2cnn(C(C)(C)C)c2C)c1 [Example 36],1.90^[a]
3,CCc1c(NC(=O)c2cc(C)cnc2C(F)F)cnn1-c1ccccc1Cl [Example 212],2.41^[a]
4,Cc1c(NC(=O)c2cccnc2C(F)F)cnn1-c1ccc(OC(F)(F)F)cc1 [Example 242],2.64^[a]
5,Cc1cnc(C(F)F)c(C(=O)Nc2cnn(-c3ccc(Br)cc3)c2C)c1 [Example 133],2.59^[a]
6,O=C(Nc1cnn(-c2cc(Cl)cc(Cl)c2)c1Br)c1cccnc1C(F)F [Example 203],3.23^[a]
7,O=C(Nc1cnn(-c2ccc(C(F)(F)F)cc2)c1Cl)c1cccnc1C(F)F [Example 188],2.81^[a]
8,Cc1ccccc1-n1ncc(NC(=O)c2cccnc2C(F)F)c1C [Example 115],1.93^[a]
9,Cc1cccc(-n2ncc(NC(=O)c3cccnc3C(F)F)c2C(F)(F)F)c1 [Example 86],2.73^[a]
10,Cc1cnc(C(F)F)c(C(=O)Nc2cnn(-c3ccccc3)c2C#N)c1 [Example 166],2.51^[a]
11,O=C(Nc1cnn(-c2cc(F)cc(F)c2)c1C(F)(F)F)c1cccnc1C(F)F [Example 61],2.88^[a]
12,Cc1cccc(-n2ncc(NC(=O)c3ccc(Cl)nc3C(F)F)c2C(F)(F)F)c1 [Example 156],3.33^[a]
13,Cc1cnc(C(F)F)c(C(=O)Nc2cnn(-c3cccc(Cl)c3)c2C(F)(F)F)c1 [Example 138],3.25^[a]
14,CCc1c(NC(=O)c2cc(C)cnc2C(F)F)cnn1-c1cccc(C(F)(F)F)c1 [Example 239],2.94^[a]
15,CCc1c(NC(=O)c2cccnc2C(F)F)cnn1-c1ccccc1Cl [Example 110],2.17^[a]
16,O=C(Nc1cnn(-c2ccccc2C(F)(F)F)c1-c1ccc(F)cc1)c1cccnc1C(F)F [Example 130],2.80^[a]
17,O=C(Nc1cnn(-c2ccccc2F)c1-c1ccc(F)cc1)c1cccnc1C(F)F [Example 147],2.51^[a]
18,O=C(Nc1cnn(-c2ccccc2C(F)(F)F)c1-c1ccc(Cl)cc1)c1cccnc1C(F)F [Example 132],3.04^[a]
19,O=C(Nc1cnn(-c2ccc(C(F)(F)F)cc2)c1-c1cccc(F)c1)c1cccnc1C(F)F [Example 185],3.31^[a]
20,O=C(Nc1cnn(-c2ccc(F)cc2)c1Cl)c1cccnc1C(F)F [Example 190],2.14^[a]
21,CC(C)c1ccc(-n2ncc(NC(=O)c3ccc(Cl)nc3C(F)F)c2C(F)(F)F)cc1 [Example 159],4.13^[a]

row,Structure (SMILES),LogP
1,O=C(Nc1cnn(-c2ccccc2F)c1-c1cccc(F)c1)c1cccnc1C(F)F [Example 146],2.51^[a]
2,O=C(Nc1cnn(-c2cccc(F)c2)c1-c1cccc(Cl)c1)c1cccnc1C(F)F [Example 58],2.98^[a]
3,O=C(Nc1cnn(-c2ccc(Br)cc2)c1-c1ccc(F)cc1)c1cccnc1C(F)F [Example 195],3.20^[a]
4,COc1c(NC(=O)c2cccnc2C(F)F)cnn1-c1ccccc1 [Example 98],1.82^[a]
5,Cc1ccc(-n2ncc(NC(=O)c3cccnc3C(F)F)c2C)cc1 [Example 112],2.10^[a]
6,Cc1cnc(C(F)F)c(C(=O)Nc2cnn(-c3ccccc3F)c2C(F)(F)F)c1 [Example 140],2.77^[a]
7,Cc1nn(-c2cccc(F)c2)c(C)c1NC(=O)c1cccnc1C(F)(F)F [Example 16],2.27^[a]
8,O=C(Nc1cnn(-c2ccccc2Cl)c1-c1cccc(F)c1)c1cccnc1C(F)F [Example 82],2.66^[a]
9,O=C(Nc1cnn(-c2ccccc2C(F)(F)F)c1-c1ccccc1)c1cccnc1C(F)F [Example 129],2.70^[a]
10,O=C(Nc1cnn(-c2cc(Cl)cc(Cl)c2)c1C(F)(F)F)c1cccnc1C(F)F [Example 92],3.64^[a]
11,O=C(Nc1cnn(-c2cc(F)cc(F)c2)c1C(F)F)c1cccnc1C(F)F [Example 29],2.62^[a]
12,Cc1ccc(-n2ncc(NC(=O)c3cc(C)cnc3C(F)F)c2C(F)(F)F)cc1 [Example 101],3.13^[a]
13,COc1c(NC(=O)c2cccnc2C(F)F)cnn1-c1ccc(Br)cc1 [Example 152],2.40^[a]
14,CC(C)CCn1ncc(NC(=O)c2cccnc2C(F)F)c1C(C)C [Example 125],2.53^[a]
15,O=C(Nc1cnn(-c2ccc(I)cc2)c1C(F)(F)F)c1cccnc1C(F)F [Example 234],3.25^[a]
16,O=C(Nc1cnn(-c2ccccc2Cl)c1Cl)c1cccnc1C(F)F [Example 191],2.17^[a]
17,O=C(Nc1cnn(-c2ccccc2)c1Br)c1cccnc1C(F)F [Example 135],2.07^[a]
18,O=C(Nc1cnn(-c2ccc(F)cc2)c1C(F)(F)F)c1cccnc1C(F)F [Example 89],2.64^[a]
19,O=C(Nc1cnn(-c2cccc(Cl)c2)c1C(F)(F)F)c1cccnc1C(F)F [Example 84],3.00^[a]
20,Cc1cnc(C(F)F)c(C(=O)Nc2cnn(-c3cc(Cl)ccc3Cl)c2C(F)(F)F)c1 [Example 175],3.39^[a]

# Now from value to compound:
row,LogP,Structure (SMILES)
1,3.19^[a],O=C(Nc1cnn(-c2cc(Cl)cc(Cl)c2)c1Cl)c1cccnc1C(F)F [Example 202]
2,2.84^[a],Cc1cnc(C(F)F)c(C(=O)Nc2cnn(-c3cccc(Cl)c3)c2C(C)C)c1 [Example 210]
3,2.86^[a],Cc1c(NC(=O)c2ccc(Cl)nc2C(F)F)cnn1-c1ccc(Cl)cc1 [Example 72]
4,2.34^[a],Cc1c(NC(=O)c2cccnc2C(F)F)cnn1-c1ccc(Br)cc1 [Example 134]
5,3.15^[a],O=C(Nc1cnn(-c2cc(Cl)ccc2Cl)c1C(F)(F)F)c1cccnc1C(F)F [Example 95]
6,3.16^[a],Cc1cnc(C(F)F)c(C(=O)Nc2cnn(-c3c(Cl)cccc3Cl)c2C(F)(F)F)c1 [Example 171]
7,2.66^[a],O=C(Nc1cnn(-c2cccc(F)c2)c1C(F)(F)F)c1cccnc1C(F)F [Example 62]
8,1.99^[a],Cc1nn(-c2cccc(F)c2)c(C)c1NC(=O)c1cccnc1C(F)F [Example 15]
9,1.88^[a],COc1c(NC(=O)c2cccnc2C(F)F)c(C)nn1-c1ccccc1 [Example 76]
10,2.94^[a],CSc1ccc(-n2ncc(NC(=O)c3cccnc3C(F)F)c2C(F)(F)F)cc1 [Example 246]
11,2.80^[a],COCc1c(NC(=O)c2cc(C)cnc2C(F)F)cnn1-c1ccc(Br)cc1 [Example 250]
12,2.99^[a],O=C(Nc1cnn(-c2ccc(Cl)cc2)c1-c1ccccc1)c1cccnc1C(F)F [Example 198]
13,2.15^[a],CC(C)c1c(NC(=O)c2cccnc2C(F)F)cnn1-c1ccccc1 [Example 120]
14,1.89^[a],CCC(CC)n1ncc(NC(=O)c2cccnc2C(F)F)c1C [Example 8]
15,3.35^[a],O=C(Nc1cnn(-c2ccc(Cl)cc2)c1-c1ccc(Cl)cc1)c1cccnc1C(F)F [Example 194]
16,2.86^[a],Cc1ccc(-n2ncc(NC(=O)c3cccnc3C(F)F)c2C(F)(F)F)cc1 [Example 87]
17,3.62^[a],O=C(Nc1cnn(-c2cccc(Cl)c2)c1C(F)(F)F)c1ccc(Cl)nc1C(F)F [Example 155]
18,3.10^[a],O=C(Nc1cnn(-c2ccc(Cl)cc2)c1-c1ccc(F)cc1)c1cccnc1C(F)F [Example 187]
19,1.68^[a],CC(C)n1ncc(NC(=O)c2cccnc2C(F)F)c1C1CC1 [Example 14]
20,3.53^[a],COc1cnc(C(F)F)c(C(=O)Nc2cnn(-c3ccc(Cl)cc3Cl)c2C(F)(F)F)c1 [Example 168]

row,LogP,Structure (SMILES)
1,3.09^[a],O=C(Nc1cnn(-c2cccc(Br)c2)c1C(F)(F)F)c1cccnc1C(F)F [Example 60]
2,3.13^[a],O=C(Nc1cnn(-c2ccc(Br)cc2)c1C(F)(F)F)c1cccnc1C(F)F [Example 63]
3,2.00^[a],CCCCn1ncc(NC(=O)c2cccnc2C(F)F)c1CC [Example 122]
4,2.94^[a],O=C(Nc1cnn(-c2c(Cl)cccc2Cl)c1C(F)(F)F)c1cccnc1C(F)F [Example 91]
5,3.33^[a],O=C(Nc1cnn(Cc2ccccc2)c1C(F)(F)F)c1ccc(Cl)nc1C(F)F [Example 173]
6,2.34^[a],CCc1c(NC(=O)c2cccnc2C(F)F)cnn1-c1cccc(C)c1 [Example 100]
7,2.80^[a],O=C(Nc1cnn(-c2ccccc2C(F)(F)F)c1-c1cccc(F)c1)c1cccnc1C(F)F [Example 131]
8,1.69^[a],CCCCn1ncc(NC(=O)c2cccnc2C(F)F)c1C [Example 7]
9,3.19^[a],O=C(Nc1cnn(-c2ccc(Br)cc2)c1-c1cccc(F)c1)c1cccnc1C(F)F [Example 201]
10,3.73^[a],O=C(Nc1cnn(-c2ccc(Cl)cc2)c1C(F)(F)F)c1ccc(Br)nc1C(F)F [Example 145]
11,2.57^[a],CCc1c(NC(=O)c2cc(C)cnc2C(F)F)cnn1-c1cccc(C)c1 [Example 206]
12,2.50^[a],O=C(Nc1cnn(-c2ccc(Cl)cc2)c1Br)c1cccnc1C(F)F [Example 220]
13,2.75^[a],O=C(Nc1cnn(-c2ccccc2F)c1-c1cccc(Cl)c1)c1cccnc1C(F)F [Example 57]
14,3.85^[a],O=C(Nc1cnn(-c2ccc(Cl)cc2Cl)c1C(F)(F)F)c1ccc(Cl)nc1C(F)F [Example 162]
15,3.53^[a],O=C(Nc1cnn(-c2c(Cl)cccc2Cl)c1C(F)(F)F)c1ccc(Cl)nc1C(F)F [Example 160]
16,2.55^[a],O=C(Nc1cnn(-c2ccccc2F)c1C(F)(F)F)c1cccnc1C(F)F [Example 88]
17,2.09^[a],COc1ccc(-n2ncc(NC(=O)c3cccnc3C(F)F)c2Br)cc1 [Example 193]
18,2.44^[a],CCc1c(NC(=O)c2cc(C)cnc2C(F)F)cnn1-c1ccccc1C [Example 204]
19,2.62^[a],CC(C)c1c(NC(=O)c2cccnc2C(F)F)cnn1-c1ccc(Cl)cc1 [Example 102]

# Same assay, conditions: reversed phase HPLC column, LC-UV, 0.1% formic acid in water and acetonitrile
row,chromatographic logP,Structure (SMILES)
1,2.9,"FC(F)c1cccc(-n2ncc(NC(=S)c3cccnc3C(F)F)c2C(F)F)c1 [Example 34, 2-(difluoromethyl)-N-{5-(difluoromethyl)-1-[3-(difluoromethyl)phenyl]-1H-pyrazol-4-yl}pyridine-3-carbothioamide]"
